For 19 compounds, Ki results are on record in patent publication US9409908B2 (priority 2012, dated 2016).

The target of test [1] is purified human plasma kallikrein (Homo sapiens (Human), UniProt P03952). Briefly: biochemical. In kind it is biochemical. To be noted: read-out: Plasma Kallikrein Ki.
In test [2] the target is purified human Factor XIa (Homo sapiens (Human), UniProt P03951). Briefly: biochemical. To be noted: read-out: Factor XIa Ki. The class given is biochemical.

Structures are written as SMILES. Structures can show the parent of a compound that is named as a salt.

Sequence of purified human plasma kallikrein (P03952 whole entry, looked up): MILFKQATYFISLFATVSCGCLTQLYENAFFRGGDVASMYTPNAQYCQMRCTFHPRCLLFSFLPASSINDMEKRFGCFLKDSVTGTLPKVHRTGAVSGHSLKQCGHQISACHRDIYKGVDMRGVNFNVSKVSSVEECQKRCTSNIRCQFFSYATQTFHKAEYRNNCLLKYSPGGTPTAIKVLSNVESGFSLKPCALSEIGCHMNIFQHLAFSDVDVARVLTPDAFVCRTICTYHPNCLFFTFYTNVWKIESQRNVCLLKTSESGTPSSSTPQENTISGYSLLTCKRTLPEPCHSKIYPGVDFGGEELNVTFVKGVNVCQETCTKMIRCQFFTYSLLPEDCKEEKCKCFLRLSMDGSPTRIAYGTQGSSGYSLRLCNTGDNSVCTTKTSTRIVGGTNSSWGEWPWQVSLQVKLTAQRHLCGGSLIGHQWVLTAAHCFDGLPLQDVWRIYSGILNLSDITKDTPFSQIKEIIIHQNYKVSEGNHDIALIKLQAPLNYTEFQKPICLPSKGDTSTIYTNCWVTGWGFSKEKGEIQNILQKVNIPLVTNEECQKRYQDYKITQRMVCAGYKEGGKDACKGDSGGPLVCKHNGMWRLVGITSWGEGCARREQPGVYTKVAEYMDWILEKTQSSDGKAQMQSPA
Sequence of purified human plasma kallikrein (P03952 whole entry partner, looked up): as the sequence (P03952 whole entry, looked up) above
Sequence of purified human Factor XIa (P03951 whole entry, looked up): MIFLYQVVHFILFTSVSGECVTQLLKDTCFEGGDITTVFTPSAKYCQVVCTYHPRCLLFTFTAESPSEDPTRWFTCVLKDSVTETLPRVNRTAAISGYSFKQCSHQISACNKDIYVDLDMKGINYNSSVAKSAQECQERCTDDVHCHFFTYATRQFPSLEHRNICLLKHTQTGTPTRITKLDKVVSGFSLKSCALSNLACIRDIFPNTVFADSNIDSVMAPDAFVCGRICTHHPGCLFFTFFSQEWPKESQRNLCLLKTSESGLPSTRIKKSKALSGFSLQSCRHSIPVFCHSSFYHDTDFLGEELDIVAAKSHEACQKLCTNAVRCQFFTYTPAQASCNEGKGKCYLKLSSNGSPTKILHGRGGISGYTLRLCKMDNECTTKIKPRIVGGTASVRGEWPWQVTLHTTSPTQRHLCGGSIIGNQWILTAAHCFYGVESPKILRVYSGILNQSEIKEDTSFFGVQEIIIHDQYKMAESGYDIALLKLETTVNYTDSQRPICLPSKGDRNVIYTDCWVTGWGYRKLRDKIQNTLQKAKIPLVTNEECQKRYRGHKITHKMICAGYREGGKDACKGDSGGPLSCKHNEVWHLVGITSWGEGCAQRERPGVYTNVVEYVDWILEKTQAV
Sequence of purified human Factor XIa (P03951 whole entry partner, looked up): as the sequence (P03951 whole entry, looked up) above

Usually Ki stands for a dissociation constant, usually derived from enzyme kinetics or from competition with a known ligand. For `CO[C@H]1[C@H](O)[C@@H](CO)OC(Nc2ccc3c(c2)NC(=O)[C@H](C)CCC[C@H](N2CCC(c4c(F)ccc(Cl)c4F)=CC2=O)c2cc-3ccn2)[C@@H]1O` (stereo partly drawn) [Example 129, (10R,14S)-14-[4-(3-chloro-2,6-difluorophenyl)-6-oxo-1,2,3,6-tetrahydropyridin-1-yl]-5-{[(3R,4S,5R,6R)-3,5-dihydroxy-6-(hydroxymethyl)-4-methoxyoxan-2-yl]amino}-10-methyl-8,16-diazatricyclo[13.3.1.0^2,7]nonadeca-1(19),2,4,6,15,17-hexaen-9-one], the Ki came to 21.7 nM in test [1] and 8.29 nM in test [2].

In the case of `COC(=O)Nc1ccc2c(c1)NC(=O)[C@H](C)CCC[C@H](N1CCC(c3c(C#N)ccc(C#N)c3F)=CC1=O)c1cc-2cc(OC)n1` [Example 7, Methyl N-[(10R,14S)-14-[4-(3,6-dicyano-2-fluorophenyl)-6-oxo-1,2,3,6-tetrahydropyridin-1-yl]-17-methoxy-10-methyl-9-oxo-8,16-diazatricyclo[13.3.1.0^2,7]nonadeca-1(18),2,4,6,15(19),16-hexaen-5-yl]carbamate], the Ki in test [1] came out at 10 nM; in test [2] it was 5.42 nM.

On to `CC(=O)Nc1ccc(Cl)c(F)c1C1=CC(=O)N([C@H]2CCC[C@@H](C)C(=O)Nc3ccccc3-c3ccnc2c3)CC1` [Example 183, N-(4-chloro-3-fluoro-2-{1-[(10R,14S)-10-methyl-9-oxo-8,16-diazatricyclo[13.3.1.0^2,7]nonadeca-1(19),2(7),3,5,15,17-hexaen-14-yl]-6-oxo-1,2,3,6-tetrahydropyridin-4-yl}phenyl)acetamide], for which the Ki in test [1] amounted to 297 nM; in test [2] it was 75.1 nM.

Consider `COC(=O)c1ccc2c(c1)-c1cccc(c1)[C@H](N1CCC(c3c(Br)ccc(Cl)c3F)=CC1=O)CCC[C@@H](C)C(=O)N2` [Example 175, Methyl (10R,14R)-14-[4-(6-bromo-3-chloro-2-fluorophenyl)-6-oxo-1,2,3,6-tetrahydropyridin-1-yl]-10-methyl-9-oxo-8-azatricyclo[13.3.1.0^2,7]nonadeca-1(19),2,4,6,15,17-hexaene-4-carboxylate], for which the Ki was 3810 nM in test [1] and over 625 nM in test [2].

In the case of `C[C@@H]1CCC[C@H](N2CCC(c3c(F)ccc(Cl)c3F)=CC2=O)c2cc(ccn2)-c2c(F)cccc2NC1=O` [Example 80, (10R,14S)-14-[4-(3-Chloro-2,6-difluorophenyl)-6-oxo-1,2,3,6-tetrahydropyridin-1-yl]-3-fluoro-10-methyl-8,16-diazatricyclo[13.3.1.0^2,7]nonadeca-1(19),2(7),3,5,15,17-hexaen-9-one, TFA salt], the values for the Ki in test [1] and in test [2] were 38 nM and 13.6 nM, respectively.

Turning to `COC(=O)Nc1ccc2c(c1)NC(=O)[C@H](C)CCC[C@H](N1CCC(c3c(-c4c[nH]nn4)ccc(Cl)c3F)=CC1=O)c1cc-2ccn1` [Example 182, Methyl N-[(10R,14S)-14-{4-[3-chloro-2-fluoro-6-(1H-1,2,3-triazol-4-yl)phenyl]-6-oxo-1,2,3,6-tetrahydropyridin-1-yl}-10-methyl-9-oxo-8,16-diazatricyclo[13.3.1.0^2,7]nonadeca-1(19),2(7),3,5,15,17-hexaen-5-yl]carbamate], the inhibition constant Ki in test [1] came out at 14.3 nM; in test [2] it was 0.11 nM.

Turning to `COC(=O)Nc1ccc2c(c1)NC(=O)[C@H](C)CCC[C@H](N1CCC(c3c(F)ccc(C)c3F)=CC1=O)c1cc-2ccn1` [Example 111, Methyl N-[(10R,14S)-14-[4-(2,6-difluoro-3-methylphenyl)-6-oxo-1,2,3,6-tetrahydropyridin-1-yl]-10-methyl-9-oxo-8,16-diazatricyclo[13.3.1.0^2,7]nonadeca-1(18),2,4,6,15(19),16-hexaen-5-yl]carbamate], the inhibition constant Ki worked out at 3.25 nM in test [1] and 1.42 nM in test [2].

As to `CC1CCC[C@H](N2CCC(c3c(F)ccc(Cl)c3F)=CC2=O)c2cc(ccn2)-c2ccc(C(=O)O)cc2NC1=O` (stereo partly drawn) [Example 105, (14S)-14-[4-(3-Chloro-2,6-difluorophenyl)-6-oxo-1,2,3,6-tetrahydropyridin-1-yl]-10-methyl-9-oxo-8,16-diazatricyclo[13.3.1.0^2,7]nonadeca-1(18),2,4,6,15(19),16-hexaene-5-carboxylic acid, TFA salt], the inhibition constant (Ki) was 3920 nM in test [1] and over 342 nM in test [2].

For the compound `COC(=O)Nc1ccc2c(c1)NC(=O)[C@H](C)CCC[C@H](N1CCC(c3c(C#N)ccc4c(N)n[nH]c34)=CC1=O)c1cc-2cc(OC)n1` [Example 8, Methyl N-[(10R,14S)-14-[4-(3-amino-6-cyano-1H-indazol-7-yl)-6-oxo-1,2,3,6-tetrahydropyridin-1-yl]-17-methoxy-10-methyl-9-oxo-8,16-diazatricyclo[13.3.1.0^2,7]nonadeca-1(18),2,4,6,15(19),16-hexaen-5-yl]carbamate, TFA salt], the figures for the Ki in test [1] and in test [2] were 173 nM and over 457 nM, respectively.

In the case of `COC(=O)Nc1ccc2c(c1)NC(=O)[C@H](C)CCC[C@H](N1CCC(c3c(C#N)ccc(Cl)c3F)=CC1=O)c1cc-2ccn1` [Example 3, Methyl N-[(10R,14S)-14-[4-(3-chloro-6-cyano-2-fluorophenyl)-6-oxo-1,2,3,6-tetrahydropyridin-1-yl]-10-methyl-9-oxo-8,16-diazatricyclo[13.3.1.0^2,7]nonadeca-1(19),2,4,6,15,17-hexaen-5-yl]carbamate, TFA salt], the inhibition constant (Ki) in test [1] turned out to be 1 nM; in test [2], 0.03 nM.

`C[C@@H]1CCC[C@H](N2CCC(c3c(Br)ccc(Cl)c3F)=CC2=O)c2cccc(c2)-c2cc(C(=O)O)ccc2NC1=O` [Example 167, (10R,14S)-14-[4-(6-bromo-3-chloro-2-fluorophenyl)-6-oxo-1,2,3,6-tetrahydropyridin-1-yl]-10-methyl-9-oxo-8-azatricyclo[13.3.1.0^2,7]nonadeca-1(19),2,4,6,15,17-hexaene-4-carboxylic acid]: the figures for the Ki in test [1] and in test [2] were 20.1 nM and 0.81 nM, respectively.

For the compound `C[C@@H]1CCC[C@H](N2CCC(c3c(Br)ccc(Cl)c3F)=CC2=O)c2cc(ccn2)-c2ccc(C(N)=O)cc2NC1=O` [Example 29, (14S)-14-[4-(6-Bromo-3-chloro-2-fluorophenyl)-6-oxo-1,2,3,6-tetrahydropyridin-1-yl]-10-methyl-9-oxo-8,16-diazatricyclo[13.3.1.0^2,7]nonadeca-1(19),2(7),3,5,15,17-hexaene-5-carboxamide, TFA salt], the inhibition constant Ki in test [1] is 3 nM; in test [2], 2.88 nM.

For the compound `CC(C)[C@@H]1CCC[C@H](N2CCC(c3c(F)ccc(Cl)c3F)=CC2=O)c2cc(ccn2)-c2ccccc2NC1=O` [Example 95, (10S,14S)-14-[4-(3-chloro-2,6-difluorophenyl)-6-oxo-1,2,3,6-tetrahydropyridin-1-yl]-10-(propan-2-yl)-8,16-diazatricyclo[13.3.1.0^2,7]nonadeca-1(18),2,4,6,15(19),16-hexaen-9-one, TFA salt], the figures for the inhibition constant Ki in test [1] and in test [2] were 107 nM and 46.5 nM, respectively.

As for `COC(=O)Nc1ccc2c(c1)C(=O)NCC/C=C/C[C@H](N1CCC(c3c(F)ccc(Cl)c3F)=CC1=O)c1cc-2ccn1` [Example 216, Methyl N-[(12E,15S)-15-[4-(3-chloro-2,6-difluorophenyl)-6-oxo-1,2,3,6-tetrahydropyridin-1-yl]-8-oxo-9,17-diazatricyclo[14.3.1.0^2,7]icosa-1(20),2(7),3,5,12,16,18-heptaen-5-yl]carbamate, TFA salt], the inhibition constant (Ki) in test [1] was determined as 212 nM; in test [2], 264 nM.

Take `C[C@@H]1CCC[C@H](N2CCC(c3c(F)ccc(Cl)c3F)=CC2=O)c2cc(ccn2)-c2c(cccc2C(=O)O)NC1=O` [Example 214, (10R,14S)-14-[4-(3-chloro-2,6-difluorophenyl)-6-oxo-1,2,3,6-tetrahydropyridin-1-yl]-10-methyl-9-oxo-8,16-diazatricyclo[13.3.1.0^2,7]nonadeca-1(19),2(7),3,5,15,17-hexaene-3-carboxylic acid, TFA salt]: the Ki in test [1] was over 13000 nM; in test [2], over 423 nM.

As to `C[C@@H]1CCC[C@H](N2CCC(c3c(F)ccc(Cl)c3F)=CC2=O)c2cc(ccn2)-c2cc3c(O)cc(=O)[nH]c3cc2NC1=O` [Example 199, (14R,18S)-18-[4-(3-chloro-2,6-difluorophenyl)-6-oxo-1,2,3,6-tetrahydropyridin-1-yl]-5-hydroxy-14-methyl-8,12,20-triazatetracyclo[17.3.1.0^2,11.0^4,9]tricosa-1(23),2,4(9),5,10,19,21-heptaene-7,13-dione, TFA salt], the Ki in test [1] was 1.79 nM; in test [2], under 0.05 nM.

Take `COC(=O)Nc1ccc2c(c1)NC(=O)[C@H](C)CCC[C@H](N1CCC(c3ccccc3OC)=CC1=O)c1cc-2ccn1` [Example 116, Methyl N-[(10R,14S)-14-[4-(2-methoxyphenyl)-6-oxo-1,2,3,6-tetrahydropyridin-1-yl]-10-methyl-9-oxo-8,16-diazatricyclo[13.3.1.0^2,7]nonadeca-1(18),2,4,6,15(19),16-hexaen-5-yl]carbamate]: the Ki was 739 nM in test [1] and 267 nM in test [2].

On to `Cc1nnc(Nc2ccc3c(c2)NC(=O)[C@H](C)CCC[C@H](N2CCC(c4c(F)ccc(Cl)c4F)=CC2=O)c2ccnc-3c2)o1` [Example 37, (10R,14S)-14-[4-(3-Chloro-2,6-difluorophenyl)-6-oxo-1,2,3,6-tetrahydropyridin-1-yl]-10-methyl-5-[(5-methyl-1,3,4-oxadiazol-2-yl)amino]-8,18-diazatricyclo[13.3.1.0^2,7]nonadeca-1(19),2(7),3,5,15,17-hexaen-9-one, TFA salt], for which the Ki in test [1] is 1 nM; in test [2] it was 0.87 nM.

On to `COC(=O)Nc1ccc2c(c1)NC(=O)[C@H](C)CCC[C@H](N1CCC(c3nccc(Cl)c3F)=CC1=O)c1cc-2cc(OC)n1` [Example 5, Methyl N-[(10R,14S)-14-[4-(4-chloro-3-fluoropyridin-2-yl)-6-oxo-1,2,3,6-tetrahydropyridin-1-yl]-17-methoxy-10-methyl-9-oxo-8,16-diazatricyclo[13.3.1.0^2,7]nonadeca-1(18),2,4,6,15(19),16-hexaen-5-yl]carbamate, TFA salt], for which the Ki is 3 nM in test [1] and 2 nM in test [2].
